Read-outs that look alike come from different tables or passages of the source.
Tests used:
Type in all cases: cell-based, human
H2009 = assay: Cell viability dose-response, H2009; conditions: Homo sapiens; for IC50: NCI-H2009; for AC50: NCI-H2009, Table 8
Protocol: (§1) FIG. 6A. […] Cell viability is plotted vs. compound concentration. Compound was added to cells plated at 15% confluence in 96-well plates in RPMI-1640 media supplemented with 5% Fetal Bovine Serum and 2 mM L-Glutamine. After 4 days of incubation, ATP levels were measured using Cell Titer Glo (Promega). Data are presented as the average of 2 replicates ±SEM.
(§2) Selectivity may be measured by the half maximal inhibitory concentration (IC50), which, as used herein, is a measure of the effectiveness of a compound in killing cells. This quantitative measure indicates how much of a particular compound is needed to kill a particular cell population by half (e.g., as indicated by the amount of ATP). […] The IC50 can be determined by constructing a dose-response curve. The lower the IC50, the higher the potency, and the greater the difference between IC50 values for different cell lines (e.g., sensitive lines vs. insensitive lines, and sensitive lines vs. normal lines) the greater the selectivity. […]
(§3) With this information, we synthesized and tested a series of small molecules derived in conception from the oxalamide and chromone scaffold including N-acyl ureas, as shown in Tables 6-8. Each compound was tested in a 12-point dose-response study starting at 50 micromolar and decreasing in 3-fold increments to sub-nanomolar concentrations, in duplicate. Additionally, one or more additional cell line was tested in the same way.

H2122 = assay: Cell viability dose-response, H2122; conditions: Homo sapiens; for AC50: NCI-H2122, Table 8, 12-point dose-response starting at 50 micromolar
Procedure, shortened: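 Viability read as total ATP (Cell Titer Glo) following 4 days' compound exposure, with IC50 derived from dose-response curves. Duplicate 12-point series, top concentration 50 micromolar with 3-fold steps, on cells seeded at 15% confluence in RPMI-1640, 5% FBS, 2 mM L-glutamine.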

HCC44 = assay: Cell viability dose-response, HCC44; conditions: Homo sapiens; for AC50: HCC44, Table 8, 12-point dose-response starting at 50 micromolar
Protocol: as §1, §2, §3

[1] = 12-point dose-response starting at 50 micromolar, 3-fold increments, in duplicate, read-out: toxicity data, H2009
[2] = NCI-H2122, 12-point dose-response starting at 50 micromolar, 3-fold increments, in duplicate, read-out: toxicity data, H2122
[3] = NCI-H2122, Table 9, competitor, read-out: IC50 to H2122 cells
[4] = HCC44, 12-point dose-response starting at 50 micromolar, 3-fold increments, in duplicate, read-out: toxicity data, HCC44
[5] = Tables 3 and 4, read-out: IC50 (uM) vs indicated non-small cell lung cancer cell line H2009
[6] = NCI-H2122, Tables 3 and 4, read-out: IC50 (uM) vs indicated non-small cell lung cancer cell line H2122
[7] = HCC44, Tables 3 and 4, read-out: IC50 (uM) vs indicated non-small cell lung cancer cell line HCC44
[8] = 12-point dose-response starting at 50 micromolar

Structure (SMILES) | IC50 (H2009; [1]) [µM] | IC50 (H2122; [2]) [µM] | IC50 (HCC44; [4]) [µM] | AC50 (H2009; [8]) [µM] | AC50 (H2122) [µM] | AC50 (HCC44) [µM] | further results
O=C(NCCc1ccc(O)cc1)NC(=O)c1ccc(COc2ccccc2)cc1 [SW208522-1-A] | 0.01 | 0.01 | 0.01 | – | – | – | IC50 (H2122; [3]): 0.0477 µM
COc1ccc(CCNC(=O)NC(=O)c2cccc(Cl)c2)cc1 [SW208400-1-A] | ≥ 49.5 | ≥ 49.5 | ≥ 49.5 | – | – | – | –
O=C(Nc1nc2ccc(OCCCCBr)cc2s1)c1ccc(C(=O)c2ccccc2)cc1 [SW 208236] | – | – | – | – | – | – | IC50 (H2009; [5]): 49.5 µM; IC50 (H2122; [6]): ≥ 49.5 µM; IC50 (HCC44; [7]): 49.5 µM
O=c1c(Oc2ccccc2F)coc2cc(OCc3cnn(-c4cccc(F)c4)c3)ccc12 [SW208467] | – | – | – | 12.6 | ≥ 49.5 | 49.5 | –
Cc1ccc(/C=C/c2coc3cc(OCc4cnn(-c5ccccc5)c4)ccc3c2=O)cc1 [SW208758-1] | – | – | – | 16.5 | ≥ 49.5 | 49.5 | –
O=C(Nc1nc2ccc(OCCCBr)cc2s1)c1ccc(C(=O)c2ccccc2)cc1 [SW 208235] | – | – | – | – | – | – | IC50 (H2009; [5]): 49.5 µM; IC50 (H2122; [6]): ≥ 49.5 µM; IC50 (HCC44; [7]): 49.5 µM
O=c1c(-c2ccc(F)c(F)c2)coc2cc(OCc3cnn(-c4ccccc4)c3)ccc12 [SW208762-1] | – | – | – | 43.2 | 0.18 | 49.5 | –
CNC(=O)c1ccc(C(=O)NC(=O)NCCc2ccc(OC)cc2)cc1 [SW208413-1-A] | 16.3 | ≥ 49.5 | ≥ 49.5 | – | – | – | –
COc1ccc(CCNC(=O)NC(=O)c2ccc(Oc3ccccc3)cc2)cc1 [SW208456-1-A] | ≥ 49.5 | 0.031 | 0.022 | – | – | – | –
O=c1c(-c2ccc(Cl)cc2)coc2cc(OCc3cnn(-c4ccccc4)c3)ccc12 [SW208738] | – | – | – | 49.5 | ≥ 49.5 | 49.5 | –
COc1ccc(CCNC(=O)NC(=O)c2ccc(C(=O)N3CCCCC3)cc2)cc1 [SW208397-1-A] | 16.5 | 2.28 | ≥ 49.5 | – | – | – | –
COc1ccc(CCNC(=O)NC(=O)c2ccc(C(=O)NC3CC3)cc2)cc1 [SW208452-1-A] | 13.1 | ≥ 49.5 | ≥ 49.5 | – | – | – | –
Cc1cccc(Oc2coc3cc(OCc4cnn(-c5ccccc5)c4)ccc3c2=O)c1 [SW 208595-1] | – | – | – | 16.5 | 0.2 | 0.1 | –
COc1ccc(CCNC(=O)NC(=O)c2ccc(-c3ccc(OC)cc3)cc2)cc1 [SW208387-1-A] | ≥ 49.5 | 0.18 | 0.25 | – | – | – | –
COc1ccc(CCNC(=O)c2ccc(Cl)cc2)cc1 [SW208463-1-A] | ≥ 49.5 | ≥ 49.5 | ≥ 49.5 | – | – | – | –
COc1ccc(CCNC(=O)NC(=O)c2ccc(C(=O)O)cc2)cc1 [SW208395-1-A] | ≥ 49.5 | ≥ 49.5 | ≥ 49.5 | – | – | – | –
COc1ccc(CCNC(=O)NC(=O)c2cccc(-c3ccccc3)c2)cc1 [SW208394-1-A] | ≥ 49.5 | ≥ 49.5 | ≥ 49.5 | – | – | – | –
O=C(NCCc1ccc(O)cc1)NC(=O)c1ccc(C(=O)c2ccccc2)cc1 [SW208459-1-A] | 0.299 | 0.097 | 0.073 | – | – | – | IC50 (H2122; [3]): 0.0377 µM
COc1ccc(CNC(=O)c2ccc(Cl)cc2)cc1 [SW208464-1-A] | ≥ 49.5 | ≥ 49.5 | ≥ 49.5 | – | – | – | –
COc1ccc(CCNC(=O)NC(=O)c2ccc(Cl)cc2)cc1 [SW208401-1-A] | ≥ 49.5 | 0.15 | 0.54 | – | – | – | IC50 (H2122; [3]): 0.09 µM
O=c1c(-c2cccc(O)c2)coc2cc(OCc3cnn(-c4ccccc4)c3)ccc12 [SW208740] | – | – | – | 39 | 21 | 49.5 | –
CCOc1ccc(-c2coc3cc(OCc4cnn(-c5ccccc5)c4)ccc3c2=O)cc1 [SW208765-1] | – | – | – | 16.5 | ≥ 49.5 | 49.5 | –
COc1ccc(-c2coc3cc(OCc4cnn(-c5ccccc5)c4)ccc3c2=O)c(C)c1 [SW208767-1] | – | – | – | 49.5 | 2.07 | 4.06 | –
Cc1ccccc1C(=O)c1ccc(C(=O)NC(=O)NCCc2ccc(O)cc2)cc1 [SW208581-1-A] | 0.51 | 1.52 | 0.87 | – | – | – | –
COc1ccc(CCNC(=O)NC(=O)c2ccc(O)cc2)cc1 [SW208565-1-A] | 5.9 | 18 | 2.75 | – | – | – | –

Structure (SMILES) | IC50 (H2009; [1]) [µM] | IC50 (H2122; [2]) [µM] | IC50 (HCC44; [4]) [µM] | AC50 (H2009; [8]) [µM] | AC50 (H2122) [µM] | AC50 (HCC44) [µM] | further results
O=C(NCCc1ccc(O)cc1)NC(=O)c1ccc(Oc2ccccc2)cc1 [SW208523-1-A] | 0.02 | 0.02 | 0.02 | – | – | – | –
Cc1ccccc1Oc1coc2cc(OCc3cnn(-c4ccccc4)c3)ccc2c1=O [SW 208593-1] | – | – | – | > 15 | 0.11 | > 15 | –
COc1ccc(CCNC(=O)NC(=O)c2ccc(Br)cc2)cc1 [SW208388-1-A] | ≥ 49.5 | 0.16 | 0.42 | – | – | – | –
COc1ccc(CCNC(=O)NC(=O)c2ccc(C(=O)Nc3cccc(OC)c3)cc2)cc1 [SW208410-1-A] | 1.37 | ≥ 49.5 | ≥ 49.5 | – | – | – | –
O=c1c(-c2ccc3ccccc3c2)coc2cc(OCc3cnn(-c4ccccc4)c3)ccc12 [SW208761-1] | – | – | – | 32.4 | ≥ 49.5 | 49.5 | –
COc1ccc(CCNC(=O)NC(=O)c2cccc(OC)c2)cc1 [SW208403-1-A] | 42.7 | 1.09 | ≥ 49.5 | – | – | – | –
COc1ccc(CCNC(=O)NC(=O)c2ccc(C(Cl)c3ccccc3)cc2)cc1 (stereo not drawn) [SW208563-1-A] | 0.99 | 0.06 | 0.03 | – | – | – | –
O=c1c(C#Cc2ccccc2)coc2cc(OCc3cnn(-c4ccccc4)c3)ccc12 [SW208768-1] | – | – | – | 19.9 | 24.8 | 16.5 | –
COc1ccc(CCN(C)C(=O)N(C)C(=O)c2ccc(C(=O)c3ccccc3)cc2)cc1 [SW208567-1-A] | 16.5 | 15.7 | 8 | – | – | – | –
COc1ccc(CCNC(=O)NC(=O)c2ccc(-c3ccccc3)cc2)cc1 [SW208393-1-A] | ≥ 49.5 | 0.17 | ≥ 49.5 | – | – | – | IC50 (H2122; [3]): 0.115 µM
Cc1cccc(C(=O)c2ccc(C(=O)NC(=O)NCCc3ccc(O)cc3)cc2)c1 [SW208582-1-A] | 0.5 | 2.73 | 1.53 | – | – | – | IC50 (H2122; [3]): 0.8 µM
O=c1c(C2CC2)coc2cc(OCc3cnn(-c4ccccc4)c3)ccc12 [SW208766-1] | – | – | – | 49.5 | 16.5 | 49.5 | –
COc1ccc(CCNC(=O)NC(=O)c2ccc(OCc3ccccc3)cc2)cc1 [SW208457-1-A] | ≥ 49.5 | 0.031 | 0.023 | – | – | – | –
O=C(c1ccccc1)c1coc2cc(OCc3cnn(-c4ccccc4)c3)ccc2c1=O [SW208844-1] | – | – | – | 30 | 0.864 | 23.7 | –
O=c1c(Oc2cccc(F)c2)coc2cc(OCc3cnn(-c4ccccc4)c3)ccc12 [SW208592-1] | – | – | – | 16.5 | 0.15 | 0.08 | –
O=C(Nc1nc2ccccc2s1)c1ccc(C(=O)c2ccccc2)cc1 [SW208652-1] | – | – | – | – | – | – | IC50 (H2009; [5]): 2.42 µM; IC50 (H2122; [3]): 0.00644 µM; IC50 (H2122; [6]): 0.009 µM; IC50 (HCC44; [7]): 0.025 µM
O=c1c(Oc2ccc(F)cc2)coc2cc(OCc3cnn(-c4ccccc4)c3)ccc12 [SW 208591-1] | – | – | – | 16 | 0.15 | 0.07 | –
COc1ccc(CCNC(=O)NC(=O)c2cccc(-c3ccc(OC)cc3)c2)cc1 [SW208386-1-A] | 13.1 | ≥ 49.5 | ≥ 49.5 | – | – | – | –
O=c1c(Oc2ccccc2F)coc2cc(OCc3cnn(-c4ccc(Cl)cc4)c3)ccc12 [SW208469] | – | – | – | 16.5 | ≥ 49.5 | 49.5 | –
COc1cc2sc(NC(=O)c3ccc(C(=O)c4ccccc4)cc3)nc2cc1Br [SW 208237] | – | – | – | – | – | – | IC50 (H2009; [5]): 6.9 µM; IC50 (H2122; [6]): 0.61 µM; IC50 (HCC44; [7]): 6.5 µM
COc1ccc(CCNC(=O)N(C)C(=O)c2ccc(C(=O)c3ccccc3)cc2)cc1 [SW208566-1-A] | 10.3 | 6.15 | 7.76 | – | – | – | –
Cn1ccc(=O)c2ccc(OCc3cnn(-c4ccccc4)c3)cc21 [SW208832-1] | – | – | – | 7.51 | 7.56 | 49.5 | –
O=c1c(-c2ccc(F)cc2F)coc2cc(OCc3cnn(-c4ccccc4)c3)ccc12 [SW208760-1] | – | – | – | 20.7 | 0.11 | 49.5 | –
O=c1c(Cc2ccccc2)coc2cc(OCc3cnn(-c4ccccc4)c3)ccc12 [SW208769-1] | – | – | – | 49.5 | 0.027 | 3.18 | –

Reference: patent publication US9789096B2, “Methods and compositions for selective and targeted cancer therapy” (Board of Regents of the University of Texas System, priority 2013, dated 2017)
